Source: paper PMC2410169, “N-hexanoyl-sphingomyelin potentiates in vitro doxorubicin cytotoxicity by enhancing its cellular influx” (British Journal of Cancer, 2004)
Where two headings read alike, the source gives them in different places.

Tests used:
[1] = tested on: BAEC; format: cell-based, bovine; settings: for Effect on doxorubicin uptake (in words): assay as for C6-SM, Table 1
Description: (§1) For intracellular doxorubicin measurements, cells were cultured in flat-bottom 96-well plates. At confluence, cells were changed to a serum-free medium and exposed to 50 μM doxorubicin during 60 min (unless indicated otherwise). After washing with ice-cold PBS, cells were lysed in 1% (w v^−1) Triton X-100 in water. Native fluorescence intensities were then measured by a Perkin-Elmer Victor Wallac II fluorescence microplate reader, using λex 485 nm and λem 535 nm filters. Additional probes and drugs that were tested for cellular uptake during 60 min incubations, either in the absence or presence of lipid, were hydrazide-AF488 (35 μM, λex 485 nm, λem 535 nm), sulphorodamine-101 (400 μM, λex 355 nm, λem 620 nm), propidium iodide (300 μM, λex 355 nm, λem 535 nm), o-phtaldialdehyde (1 mM, λex 485 nm, λem 535 nm), topotecan (30 μM, λex 355 nm, λem 535 nm), epirubicin (50 μM, λex 485 nm, λem 535 nm), bisbenzimidine (10 μM, λex 355 nm, λem 460 nm), camptothecin (30 μM, λex 355 nm, λem 460 nm), daunorubicin (25 μM, λex 485 nm, λem 535 nm) and idarubicin (20 μM, λex 485 nm, λem 535 nm).

[2] = tested on: BAEC; experiment: Raft-mediated endocytosis: AF488-CTB uptake; format: cell-based, bovine; settings: 10 μM C6-SM, 120 min
Description: (§2) To monitor clathrin- and raft-mediated endocytic activity, confluent BAEC were allowed to take up AF488-transferrin (150 μg ml^−1) or AF488-CTB (75 μg ml^−1), respectively. Incubations were performed under serum-free conditions in the presence of 10 μM C6-SM during 120 min. Cells were then washed and lysed in PBS containing 1% (v v^−1) Triton X-100. Fluorescence was then measured at λex 485 nm and λem 535 nm.

[3] = tested on: BAEC; experiment: Plasma membrane integrity: uptake of fluid phase marker hydrazide-AF488; format: cell-based, bovine; settings: 10 μM C6-SM
Description: Confluent and serum-free BAEC were incubated for 120 min in the presence of C6-SM and 175 μM of the membrane impermeant fluid phase marker hydrazide-AF488. After washing, cells were lysed in PBS containing 1% (w v^−1) Triton X-100 and fluorescence was measured at λex 485 nm and λem 535 nm. […] All data were corrected for protein contents, as determined with the BCA assay ([Smith et al, 1985]).

[4] = tested on: control renal fibroblasts; experiment: Cellular doxorubicin accumulation in control kidney fibroblasts; format: cell-based, mice; settings: Table 2, C6-SM 10 μM, 60 min
Description: (§3) The following cell types were cultured in Dulbecco's modified Eagle's medium (DMEM) containing 10% (v v^−1) foetal calf serum: primary bovine aortic endothelial cells (BAEC; passage 14–19), kindly provided by Dr A Haimovitz-Friedman (Memorial Sloan-Kettering Cancer Center, New York City NY, USA); MCF-7, KB and A431 carcinoma cells, purchased from the American Type Culture Collection (Manassas VA, USA); SV40 large-T antigen-immortalised kidney fibroblasts from Mrp1/Mdr1a/Mdr1b triple knockout mice and control renal fibroblasts ([Wijnholds et al, 2000]; kindly provided by Dr AH Schinkel, The Netherlands Cancer Institute, Amsterdam). […] All culture media were supplemented with 100 U ml^−1 penicillin, 100 μg ml^−1 streptomycin and 4 mM L-glutamine. For intracellular doxorubicin measurements, cells were cultured in flat-bottom 96-well plates. […] After washing with ice-cold PBS, cells were lysed in 1% (w v^−1) Triton X-100 in water. Native fluorescence intensities were then measured by a Perkin-Elmer Victor Wallac II fluorescence microplate reader, using λex 485 nm and λem 535 nm filters.

[5] = tested on: A431 cells; experiment: Cell viability, MTT assay; format: cell-based, human; settings: for EC50: Homo sapiens, 60 min exposure, 48 h further culture, read-out: Doxorubicin EC50
Description: After centrifugation (3000 rpm, 10 min) supernatants were removed.

[6] = tested on: kidney fibroblasts from Mrp1/Mdr1a/Mdr1b triple knockout mice; experiment: Cellular doxorubicin accumulation in ABC-transporter knockout fibroblasts; format: cell-based
Description: as §3

[7] = tested on: BAEC
Description: (§4) For viability assessment, cells were cultured in flat-bottom 96-well plates. After experimental treatments, 100 μg of the mitochondrial dehydrogenase substrate MTT was added to each well ([Carmichael et al, 1987]). Cells were then incubated for 60 min at 37°C. After centrifugation (3000 rpm, 10 min) supernatants were removed. The precipitated blue formazan products were then dissolved in 100 μl DMSO and absorbencies were read in a Bio-Tek Instruments EL 340 photospectrometric microplate reader at 540 nm. Background absorbencies were subtracted and values from untreated control cells were set at 100% viability.
(§5) After washing away remaining extracellular drug and lipid, cells were cultured for another 48 h. Viability was then assessed by the MTT assay, which relies on the fact that only mitochondria of viable cells have the capacity to convert the MTT substrate ([Carmichael et al, 1987]).

[8] = tested on: KB (oesophagal carcinoma); experiment: Cellular doxorubicin accumulation, fluorimetry of cell lysates; format: cell-based, human; settings: 50 μM doxorubicin, 60 min
Description: as §1

[9] = tested on: MCF-7 (mammary adenocarcinoma); experiment: as above; format: cell-based, human; settings: 50 μM doxorubicin, 60 min
Description: as §1

[10] = tested on: A431 (epidermoid carcinoma); experiment: as above; format: cell-based, human; settings: 50 μM doxorubicin, 60 min
Description: as §1

[11] = tested on: BAEC; experiment: Clathrin-mediated endocytosis: AF488-transferrin uptake; format: cell-based, bovine; settings: 10 μM C6-SM, 120 min
Description: as §2

[12] = tested on: BAEC; experiment: cells; settings: Bos taurus
Description: as §4, §5

[13] = tested on: BAEC; experiment: Cellular uptake of fluorescent drugs and probes with or without C6-SM; format: cell-based, bovine; settings: 10 μM C6-SM, 60 min
Description: as §1

[14] = Lipophilicity: 1-octanol/water partitioning; format: physicochemical; settings: 1-octanol/water partition ratio
Description: Partitioning of 10–50 μM drug or probe was monitored in a two-phase system consisting of 1 ml 1-octanol and 1 ml water. After addition of the compound, tubes were vortexed and centrifuged (3000 rpm, 5 min, 20°C). Aliquots of both the organic and the aqueous phases were taken for fluorimetric quantification, as described under Cellular drug accumulation. As a measure of lipophilicity, the 1-octanol/water partitioning ratio was calculated for each compound and expressed on a log scale ([Washington et al, 2001]).

[15] = 10 μM lipid analogue with 50 μM doxorubicin, 60 min, control = no lipid, no ethanol, n=3

CCCCCCCCCC(=O)NC(CN1CCOCC1)C(O)c1ccccc1 (racemic) [PPMP]
Doxorubicin (% of control±s.d.) ([1]; Table 4, PPMP 30 μM, 96 h pretreatment, no C6-SM): 166.5±22.5 % of control

CCCCCCCCCCCCC/C=C/C(O)C(COP(=O)([O-])OCC[N+](C)(C)C)NC(C)=O (stereo not drawn) [C2-sphingomyelin, N-acetyl-sphingomyelin]
Doxorubicin (% of control±s.d.) [1, 15]: 129.6±19.6 % of control
Effect on doxorubicin uptake (in words) [1]: moderate effect

CCCCCCCCCCCCCC=CC(O)C(COP(=O)([O-])OCC[N+](C)(C)C)NC(=O)CCCCC (stereo not drawn) [C6-SM, N-hexanoyl-sphingomyelin]
CTB uptake compared to 100% uptake under control conditions [2]: 80±23%
Hydrazide-AF488 uptake compared to 100% control uptake [3]: 97.4±18.2%
Doxorubicin (% of control±s.d.) [4]: 331.8±50.2 % of control
Increase in drug sensitivity ([5]; A431, with C6-SM vs none): 14 fold
C6-SM concentration at which the plateau in doxorubicin-uptake enhancement and cytotoxicity is reached [1]: about 8 μM
Enhanced doxorubicin uptake after washing away C6-SM not taken up by the cells [1]: remained
Increase of intracellular doxorubicin over control levels ([1]; 10 μM C6-SM, 50 μM doxorubicin, incubation periods of 15–60 min): up to 300%
Doxorubicin (% of control±s.d.) [1, 15]: 328.3±24.4 % of control
Lipid concentration giving a significant increase in drug uptake ([1]; 50 μM doxorubicin, 60 min): 2 µM
Doxorubicin (% of control±s.d.) ([1]; Table 2, C6-SM 10 μM + ATP depletion): 410.9±157.0 % of control
Doxorubicin (% of control±s.d.) ([1]; Table 2, C6-SM 10 μM + MK571 12.5 μM): 323.3±23.0 % of control
Doxorubicin (% of control±s.d.) ([1]; Table 2, C6-SM 10 μM + PSC833 5 μM): 278.1±40.7 % of control
Doxorubicin (% of control±s.d.) ([1]; Table 2, C6-SM 10 μM alone, 60 min, n=3): 369.0±113.0 % of control
Doxorubicin (% of control±s.d.) ([1]; Table 4, C6-SM 10 μM after CDX 10 mM, 30 min): 264.7±72.1 % of control
Doxorubicin (% of control±s.d.) ([1]; Table 4, C6-SM 10 μM after PPMP 30 μM, 96 h): 340.7±78.6 % of control
Doxorubicin (% of control±s.d.) ([1]; Table 4, C6-SM 10 μM after bSMase 200 mU ml^−1, 2 h): 386.2±74.7 % of control
Doxorubicin (% of control±s.d.) ([1]; Table 4, C6-SM 10 μM, no pretreatment, n=3): 353.3±62.6 % of control
Maximum increase in doxorubicin uptake over control values ([1]; at 6 μM C6-SM, 50 μM doxorubicin, 60 min): 300%
C6-SM-stimulated doxorubicin uptake under conditions that block endocytosis ([1]; cells at 4°C or depleted for ATP (sodium azide and deoxyglucose)): remained unaffected
Active concentrations ([1]; doxorubicin uptake enhancement): 2 to 6 µM
Drug uptake-enhancing effect after removal of membrane-inserted C6-SM ([1]; hydrolysis by exogenous bSMase or BSA back-exchange, not shown): strongly diminished
Enhanced uptake of doxorubicin ([1]; low micromolar amounts of lipid (abstract)): up to 300%
Increase compared to doxorubicin uptake in the absence of the lipid analogue ([6]; like in normal fibroblasts): three- to four-fold increase
Toxicity of C6-SM itself [7]: virtually nontoxic
Increase in doxorubicin sensitivity ([7]; BAEC, 10 μM C6-SM vs none): seven-fold increase in sensitivity
Concentration-dependent C6-SM effect on doxorubicin accumulation compared with BAEC [8]: Comparable results
Concentration-dependent C6-SM effect on doxorubicin accumulation compared with BAEC [9]: Comparable results
Concentration-dependent C6-SM effect on doxorubicin accumulation compared with BAEC [10]: Comparable results
Transferrin uptake compared to 100% uptake under control conditions [11]: 67±36%

CCCCCCCCCCCCC/C=C/[C@@H](O)[C@H](CO)NC(=O)CCCCC [C6-ceramide]
Doxorubicin (% of control±s.d.) [1, 15]: 105.6±6.5 % of control
Effect on doxorubicin uptake (in words) [1]: little or no effect

CCCCCC(=O)OCC(COP(=O)([O-])OCC[N+](C)(C)C)OC(=O)CCCCC (stereo not drawn) [C6-phosphatidylcholine, dihexanoyl-phosphatidylcholine]
Doxorubicin (% of control±s.d.) [1, 15]: 101.0±28.2 % of control
Effect on doxorubicin uptake (in words) [1]: completely without effect

CCCCCCCCCCCCC/C=C/[C@@H](O)[C@H](COP(=O)(O)O)NC(=O)CCCCCCC [C8-ceramide 1-phosphate, C8-ceramide-1-phosphate]
Doxorubicin (% of control±s.d.) [1, 15]: 116.5±20.6 % of control
Effect on doxorubicin uptake (in words) [1]: little or no effect

COc1cccc2c1C(=O)c1c(O)c3c(c(O)c1C2=O)C[C@@](O)(C(=O)CO)C[C@@H]3O[C@H]1C[C@H](N)[C@H](O)[C@H](C)O1 [Doxorubicin, doxorubicin]
EC50 ([5]; A-431, A431, with C6-SM): 130 nM
EC50 ([5]; A-431, A431, without C6-SM): 1800 nM
Doxorubicin (% of control±s.d.) ([1]; Table 2, ATP depletion (2-deoxy-D-glucose + sodium azide, 90 min), no C6-SM): 108.2±46.7 % of control
EC50 ([12]; read-out: Doxorubicin EC50 for BAEC toxicity, absence of C6-SM, 60 min exposure, 48 h further culture): 4000 nM
EC50 ([12]; read-out: Doxorubicin EC50 for BAEC toxicity, with 10 μM C6-SM, 60 min exposure, 48 h further culture): 600 nM
Doxorubicin (% of control±s.d.) ([6]; Table 2, no C6-SM, relative to control fibroblasts): 101.7±14.3 % of control

CN(C)C(=O)CCSC(SCCC(=O)O)c1cccc(/C=C/c2ccc3ccc(Cl)cc3n2)c1 (stereo not drawn) [MK571]
Doxorubicin (% of control±s.d.) ([1]; Table 2, MK571 12.5 μM, no C6-SM): 103.5±30.2 % of control

C/C=C/C[C@@H](C)C(=O)[C@H]1C(=O)N[C@@H](C(C)C)C(=O)N(C)CC(=O)N(C)[C@@H](CC(C)C)C(=O)N[C@@H](C(C)C)C(=O)N(C)[C@@H](CC(C)C)C(=O)N[C@@H](C)C(=O)N[C@H](C)C(=O)N(C)[C@@H](CC(C)C)C(=O)N(C)[C@@H](CC(C)C)C(=O)N(C)[C@@H](C(C)C)C(=O)N1C [PSC833]
Doxorubicin (% of control±s.d.) ([1]; Table 2, PSC833 5 μM, no C6-SM): 76.0±15.6 % of control

CCCCCCCCCCCCC/C=C/[C@@H](O)[C@@H](N)COP(=O)([O-])OCC[N+](C)(C)C [Sphingosinephosphorylcholine, sphingosylphosphorylcholine]
Doxorubicin (% of control±s.d.) [1, 15]: 143.2±10.0 % of control
Effect on doxorubicin uptake (in words) [1]: moderate effect

CC[C@@]1(O)C(=O)OCc2c1cc1n(c2=O)Cc2cc3ccccc3nc2-1 [camptothecin]
Sensitivity towards C6-SM uptake enhancement [13]: mostly insensitive to C6-SM

COc1cccc2c1C(=O)c1c(O)c3c(c(O)c1C2=O)C[C@@](O)(C(C)=O)C[C@@H]3O[C@H]1C[C@H](N)[C@H](O)[C@H](C)O1 [daunorubicin]
Lipophilicity compared with doxorubicin [14]: significantly higher
Sensitivity towards C6-SM uptake enhancement [13]: mostly insensitive to C6-SM

COc1cccc2c1C(=O)c1c(O)c3c(c(O)c1C2=O)C[C@@](O)(C(=O)CO)C[C@@H]3O[C@H]1C[C@H](N)[C@@H](O)[C@H](C)O1 [epirubicin]
Sensitivity towards C6-SM uptake enhancement [13]: C6-SM sensitive

CC(=O)[C@]1(O)Cc2c(O)c3c(c(O)c2[C@@H](O[C@H]2C[C@H](N)[C@H](O)[C@H](C)O2)C1)C(=O)c1ccccc1C3=O [idarubicin]
Lipophilicity compared with doxorubicin [14]: significantly higher
Sensitivity towards C6-SM uptake enhancement [13]: mostly insensitive to C6-SM

CC[C@@]1(O)C(=O)OCc2c1cc1n(c2=O)Cc2cc3c(CN(C)C)c(O)ccc3nc2-1 [topotecan]
Sensitivity towards C6-SM uptake enhancement [13]: C6-SM sensitive

methyl-β-cyclodextrin [CDX]
Doxorubicin (% of control±s.d.) ([1]; Table 4, CDX 10 mM, 30 min pretreatment, no C6-SM): 113.0±28.1 % of control

sphingomyelin [Endogenous SM]
Effect on doxorubicin uptake (in words) [1]: does not work
